From patent US9458153B2, “Dihydroquinolizinones for the treatment and prophylaxis of hepatitis B virus infection” (Hoffmann-La Roche Inc., priority 2014, dated 2016)
Counter-ions that a name gives are not always drawn.

These compounds were tested on HBV DNA (assay: HBV DNA assay (real-time qPCR/TaqMan of extracellular HBV DNA copy number, HepG2.2.15 cells)). Conditions: Anti HBV DNA production activity in HepG2.2.15 cells; supernatant collected six days after initial administration.
Assay type: cell-based
Procedure: HepG2.2.15 cells (Acs et al. Proc Natl Acad Sci USA, 84, (1987), 4641-4), a constitutively HBV-expressing cell line were cultured in DMEM+Glutamax-I medium (Invitrogen, Carlsbad, Calif., USA), supplemented with 10% fetal bovine serum (Invitrogen) and G418 (Invitrogen) at a final concentration of 200 mg/L and maintained in 5% CO2 at 37° C.
The assay employs real-time qPCR (TaqMan) to directly measure extracellular HBV DNA copy number. HepG2.2.15 cells were plated in 96-well microtiter plates. Only the interior wells were utilized to reduce “edge effects” observed during cell culture, the exterior wells were filled with complete medium to help minimize sample evaporation. On the following day, the HepG2.2.15 cells were washed and the medium was replaced with complete medium containing various concentrations of a test compound in triplicate. 3TC was used as the positive control, while media alone was added to cells as a negative control (virus control, VC). Three days later, the culture medium was replaced with fresh medium containing the appropriately diluted drug. Six days following the initial administration of the test compound, the cell culture supernatant was collected, treated with pronase and then used in a real-time qPCR/TaqMan assay to determine HBV DNA copy numbers. Antiviral activity was calculated from the reduction in HBV DNA levels (IC50).
The compounds of the present invention were tested for their capacity to inhibit HBV DNA as described herein.

Row | SMILES | IC50
1 | CCOc1cc2c(cc1OCC)-c1cc(=O)c(C(=O)O)cn1C(CC)C2 (single isomer, unassigned; (+)) [Example 6, (+)-9,10-diethoxy-6-ethyl-2-oxo-6,7-dihydrobenzo[a]quinolizine-3-carboxylic acid] | 6 nM
2 | CCCOc1cc2c(cc1OC)-c1cc(=O)c(C(=O)O)cn1C(CC)C2 (stereo not drawn) [Example 78, 6-ethyl-10-methoxy-2-oxo-9-propoxy-6,7-dihydrobenzo[a]quinolizine-3-carboxylic acid] | 4 nM

The compounds below were run on HBsAg (assay: HBsAg assay (chemiluminescence immunoassay of secreted HBsAg in HepG2.2.15 culture supernatant)). Conditions: HBsAg secretion reduced by 50% vs no drug control; HepG2.2.15 cells; CLIA kit.
Assay type: cell-based, HBV
How it was run: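 HepG2.2.15 cells, which constitutively express HBV, were seeded in duplicate and treated with three-fold serial compound dilutions at 1% DMSO final. Secreted HBsAg in culture supernatant was measured semi-quantitatively by chemiluminescence immunoassay. IC50 was extrapolated from dose-response curves.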

Row | SMILES | IC50
3 | COc1cc2c(cc1OCCCCCCNC(=O)OC(C)(C)C)CC(C(C)(C)C)n1cc(C(=O)O)c(=O)cc1-2 (stereo not drawn) [Example 161, 9-[6-(tert-butoxycarbonylamino)hexoxy]-6-tert-butyl-10-methoxy-2-oxo-6,7-dihydrobenzo[a]quinolizine-3-carboxylic acid] | 9 nM
4 | COc1cc2c(cc1OCCCCCCCCN)CC(C(C)(C)C)n1cc(C(=O)O)c(=O)cc1-2 (stereo not drawn) [Example 166, 9-(8-aminooctoxy)-6-tert-butyl-10-methoxy-2-oxo-6,7-dihydrobenzo[a]quinolizine-3-carboxylic acid] | 6 nM
5 | COc1cc2c(cc1OCCCCCCCCNC(=O)OC(C)(C)C)CC(C(C)(C)C)n1cc(C(=O)O)c(=O)cc1-2 (stereo not drawn) [Example 167, 9-[8-(tert-butoxycarbonylamino)octoxy]-6-tert-butyl-10-methoxy-2-oxo-6,7-dihydrobenzo[a]quinolizine-3-carboxylic acid] | 11 nM
6 | COc1cc2c(cc1OCCCSC)CC(C(C)(C)C)n1cc(C(=O)O)c(=O)cc1-2 (stereo not drawn) [Example 183, 6-tert-butyl-10-methoxy-9-(3-methylsulfanylpropoxy)-2-oxo-6,7-dihydrobenzo[a]quinolizine-3-carboxylic acid] | 2 nM
7 | COc1cc2c(cc1OCCCS(C)(=O)=O)CC(C(C)(C)C)n1cc(C(=O)O)c(=O)cc1-2 (stereo not drawn) [Example 186, 6-tert-butyl-10-methoxy-9-(3-methylsulfonylpropoxy)-2-oxo-6,7-dihydrobenzo[a]quinolizine-3-carboxylic acid] | 20 nM
8 | COCCCOc1cc2c(cc1OC)-c1cc(=O)c(C(=O)O)cn1C(CC(F)(F)F)C2 (stereo not drawn) [Example 199, 10-methoxy-9-(3-methoxypropoxy)-2-oxo-6-(2,2,2-trifluoroethyl)-6,7-dihydrobenzo[a]quinolizine-3-carboxylic acid] | 33 nM
9 | COCCCOc1cc2c(cc1Cl)-c1cc(=O)c(C(=O)O)cn1C(C(C)(C)C)C2 (stereo not drawn) [Example 202, 6-tert-butyl-10-chloro-9-(3-methoxypropoxy)-2-oxo-6,7-dihydrobenzo[a]quinolizine-3-carboxylic acid] | 2 nM
10 | COCCCOc1cc2c(cc1Cl)-c1cc(=O)c(C(=O)O)cn1C(C1(C)CC1)C2 (stereo not drawn) [Example 205, 10-chloro-9-(3-methoxypropoxy)-6-(1-methylcyclopropyl)-2-oxo-6,7-dihydrobenzo[a]quinolizine-3-carboxylic acid] | 1 nM
11 | COCCCOc1cc2c(c(F)c1F)-c1cc(=O)c(C(=O)O)cn1C(C(C)C)C2 (stereo not drawn) [Example 213, 10,11-difluoro-6-isopropyl-9-(3-methoxypropoxy)-2-oxo-6,7-dihydrobenzo[a]quinolizine-3-carboxylic acid] | 24 nM

Same assay, conditions: HBsAg secretion reduced by 50% vs no drug control; HepG2.2.15 cells; CLIA kit; hydrochloride

Row | SMILES | IC50
12 | COc1cc2c(cc1OCCN1CCOCC1)CC(C(C)(C)C)n1cc(C(=O)O)c(=O)cc1-2 (stereo not drawn) [Example 189, 6-tert-butyl-10-methoxy-9-(2-morpholinoethoxy)-2-oxo-6,7-dihydrobenzo[a]quinolizine-3-carboxylic acid hydrochloride] | 18 nM
13 | COc1cc2c(cc1OCCCN1CCOCC1)CC(C(C)(C)C)n1cc(C(=O)O)c(=O)cc1-2 (stereo not drawn) [Example 192, 6-tert-butyl-10-methoxy-9-(3-morpholinopropoxy)-2-oxo-6,7-dihydrobenzo[a]quinolizine-3-carboxylic acid hydrochloride] | 10 nM

Same assay, conditions: Hepatitis B virus, HepG2.2.15, HBsAg secretion reduced by 50% vs no drug control; HepG2.2.15 cells; CLIA kit

Row | SMILES | IC50
14 | COc1cc2c(cc1OCCCCCNC(=O)OC(C)(C)C)CC(C(C)(C)C)n1cc(C(=O)O)c(=O)cc1-2 (stereo not drawn) [Example 172, 9-[5-(tert-butoxycarbonylamino)pentoxy]-6-tert-butyl-10-methoxy-2-oxo-6,7-dihydrobenzo[a]quinolizine-3-carboxylic acid] | 2 nM
15 | COc1cc2c(cc1OCCCCCNC(C)=O)CC(C(C)(C)C)n1cc(C(=O)O)c(=O)cc1-2 (stereo not drawn) [Example 175, 9-(5-acetamidopentoxy)-6-tert-butyl-10-methoxy-2-oxo-6,7-dihydrobenzo[a]quinolizine-3-carboxylic acid] | 33 nM
16 | COc1cc2c(cc1OCCCCCNS(C)(=O)=O)CC(C(C)(C)C)n1cc(C(=O)O)c(=O)cc1-2 (stereo not drawn) [Example 176, 6-tert-butyl-9-[5-(methanesulfonamido)pentoxy]-10-methoxy-2-oxo-6,7-dihydrobenzo[a]quinolizine-3-carboxylic acid] | 3 nM
17 | COc1cc2c(cc1OCCN)CC(C(C)(C)C)n1cc(C(=O)O)c(=O)cc1-2 (stereo not drawn) [Example 177, 9-(2-aminoethoxy)-6-tert-butyl-10-methoxy-2-oxo-6,7-dihydrobenzo[a]quinolizine-3-carboxylic acid] | 1380 nM
18 | COc1cc2c(cc1OCCCOCCN)CC(C(C)(C)C)n1cc(C(=O)O)c(=O)cc1-2 (stereo not drawn) [Example 178, 9-[3-(2-aminoethoxy)propoxy]-6-tert-butyl-10-methoxy-2-oxo-6,7-dihydrobenzo[a]quinolizine-3-carboxylic acid] | 63 nM
19 | CCNCCOCCCOc1cc2c(cc1OC)-c1cc(=O)c(C(=O)O)cn1C(C(C)(C)C)C2 (stereo not drawn) [Example 179, 6-tert-butyl-9-[3-[2-(ethylamino)ethoxy]propoxy]-10-methoxy-2-oxo-6,7-dihydrobenzo[a]quinolizine-3-carboxylic acid] | 38 nM
20 | COc1cc2c(cc1OCCC(F)F)CC(C(C)(C)C)n1cc(C(=O)O)c(=O)cc1-2 (stereo not drawn) [Example 180, 6-tert-butyl-9-(3,3-difluoropropoxy)-10-methoxy-2-oxo-6,7-dihydrobenzo[a]quinolizine-3-carboxylic acid] | 4 nM
21 | CCC(F)(F)Oc1cc2c(cc1OC)-c1cc(=O)c(C(=O)O)cn1C(C(C)(C)C)C2 (stereo not drawn) [Example 181, 6-tert-butyl-9-(1,1-difluoropropoxy)-10-methoxy-2-oxo-6,7-dihydrobenzo[a]quinolizine-3-carboxylic acid] | 12 nM
22 | C=CC(F)(F)Oc1cc2c(cc1OC)-c1cc(=O)c(C(=O)O)cn1C(C(C)(C)C)C2 (stereo not drawn) [Example 182, 6-tert-butyl-9-(1,1-difluoroallyloxy)-10-methoxy-2-oxo-6,7-dihydrobenzo[a]quinolizine-3-carboxylic acid] | 16 nM
23 | COc1cc2c(cc1OCCCN1CCCC1=O)CC(C(C)(C)C)n1cc(C(=O)O)c(=O)cc1-2 (stereo not drawn) [Example 195, 6-tert-butyl-10-methoxy-2-oxo-9-[3-(2-oxopyrrolidin-1-yl)propoxy]-6,7-dihydrobenzo[a]quinolizine-3-carboxylic acid] | 57 nM
24 | COc1cc2c(cc1OCCCN1CCCC1)CC(C(C)(C)C)n1cc(C(=O)O)c(=O)cc1-2 (stereo not drawn) [Example 196, 6-tert-butyl-10-methoxy-2-oxo-9-(3-pyrrolidin-1-ylpropoxy)-6,7-dihydrobenzo[a]quinolizine-3-carboxylic acid] | 120 nM
25 | COCCCOc1cc2c(cc1OC)-c1cc(=O)c(C(=O)O)cn1C(C1CCC1)C2 (stereo not drawn) [Example 197, 6-cyclobutyl-10-methoxy-9-(3-methoxypropoxy)-2-oxo-6,7-dihydrobenzo[a]quinolizine-3-carboxylic acid] | 3 nM
26 | COc1cc2c(cc1OC)-c1cc(=O)c(C(=O)O)cn1C(CC(F)(F)F)C2 (stereo not drawn) [Example 198, 9,10-dimethoxy-2-oxo-6-(2,2,2-trifluoroethyl)-6,7-dihydrobenzo[a]quinolizine-3-carboxylic acid] | 230 nM
27 | COc1cc2c(cc1OC)-c1cc(=O)c(C(=O)O)cn1C(Cc1ccccc1)C2 (stereo not drawn) [Example 211, 6-benzyl-9,10-dimethoxy-2-oxo-6,7-dihydrobenzo[a]quinolizine-3-carboxylic acid] | 8250 nM
28 | COc1cc2c(cc1OCCCn1cccn1)CC(C(C)(C)C)n1cc(C(=O)O)c(=O)cc1-2 (stereo not drawn) [Example 216, 6-tert-butyl-10-methoxy-2-oxo-9-(3-pyrazol-1-ylpropoxy)-6,7-dihydrobenzo[a]quinolizine-3-carboxylic acid] | 6 nM
29 | COc1cc2c(cc1OCCCn1cncn1)CC(C(C)(C)C)n1cc(C(=O)O)c(=O)cc1-2 (stereo not drawn) [Example 217, 6-tert-butyl-10-methoxy-2-oxo-9-[3-(1,2,4-triazol-1-yl)propoxy]-6,7-dihydrobenzo[a]quinolizine-3-carboxylic acid] | 34 nM
30 | COc1cc2c(cc1OCCCC(=O)O)CC(C(C)(C)C)n1cc(C(=O)O)c(=O)cc1-2 (stereo not drawn) [Example 218, 6-tert-butyl-9-(3-carboxypropoxy)-10-methoxy-2-oxo-6,7-dihydrobenzo[a]quinolizine-3-carboxylic acid] | 145 nM
